“And” between values parts separate entries of the source, which are not always exact repeats. Equal values may be shown once.
Columns and labels:
Zika virus [1] = test: EC50 is reported via analysis of immunofluorescence staining. The assay has been performed by Icahn School of Medicine at Mount Sinai.; format: functional, organism-based, Chlorocebus sabaeus, VeroE6/TMPRSS2; settings: Baseline response 0 %, P-gp concentration 2 uM, P-gp inhibitor Elacidar
dengue virus type 2 [2] = test: (§1) Functional immunofluorescence assay to measure dose dependent changes in antiviral-drug inhibitory efficacy against Dengue virus type 2 Thailand/16681/84 in Vero E6/TMPRSS2 cells (cotreated with P-gp inhibitor, Elacridar). Cells are treated with antiviral candidates that are serially diluted, following infection, cells are fixed. EC50 is reported via analysis of immunofluorescence staining. The assay has been performed by Icahn School of Medicine at Mount Sinai.; format: organism-based, Chlorocebus sabaeus, VeroE6/TMPRSS2
Zika virus [3] = test: as §1, with “Zika” for “Dengue”, “PRVABC59” for “type 2 Thailand/16681/84”, “cells.” for “cells (cotreated with P-gp inhibitor, Elacridar).”; format: organism-based, Chlorocebus sabaeus
dengue virus type 2 [4] = test: Functional assay to measure dose dependent changes in antiviral-drug inhibitory efficacy against Dengue virus type 2 New Guinea C in Vero E6 miRFP670 cells (cotreated with P-gp inhibitor, CP100356). Cells are treated with antiviral candidates that are serially diluted, following infection, cells are fixed. EC50 is reported via analysis of fluorescence intensity using high-content imager. The …; format: organism-based, Chlorocebus sabaeus, Vero C1008; settings: Baseline response 0 %, P-gp concentration 500 nM, P-gp inhibitor CP100356
dengue virus type 2 [5] = test: as §1, with “cells.” for “cells (cotreated with P-gp inhibitor, Elacridar).”; format: organism-based, Chlorocebus sabaeus
Zika virus [6] = test: (§2) Functional CPE-based assay to measure dose dependent changes in antiviral-drug inhibitory efficacy against Zika virus MR766 in Vero E6 miRFP670 cells (cotreated with P-gp inhibitor, CP100356). Cells are treated with antiviral candidates that are serially diluted. EC50 is reported via analysis of MTS assay as a readout of CPE. The assay has been performed by KU Leuven.; format: organism-based, Chlorocebus sabaeus, Vero C1008; settings: Baseline response 0 %, Maximum response 100 %, P-gp inhibitor CP100356
Zika virus [7] = test: as §2, with “cells.” for “cells (cotreated with P-gp inhibitor, CP100356).”; format: organism-based, Chlorocebus sabaeus, Vero C1008; settings: Maximum response 100 %

In the case of `C[C@@]1(O)[C@H](O)[C@@H](CO)O[C@H]1n1ccc2c(N)ncnc21` [BETA-2'-C-METHYL-7-DEAZA-ADENOSINE], the EC90 (Zika virus [1]; EC90 CI (lower) 0.301 uM, EC90 CI (upper) 7.202 uM, Hill slope -3.742, Maximum measured 131.957 %, Maximum response 100 %, Minimum measured 2.652 %, R squared 0.767) is reported as 4.77 µM, the EC90 (Zika virus [1]; Hill slope -0.425, Maximum measured 98.697 %, Maximum response 100 %, Minimum measured 17.927 %, R squared 0.629) is reported as > 10 µM and the EC90 (Zika virus [1]; Hill slope -1.446, Maximum measured 54.457 %, Maximum response 40 %, Minimum measured 5.333 %, R squared 0.69) is reported as > 10 µM. For the same molecule, the EC90 (Zika virus [1]; Hill slope -2.191, Maximum measured 87.134 %, Maximum response 60 %, Minimum measured 12.691 %, R squared 0.704) was > 10 µM, the EC90 (dengue virus type 2 [2]; Baseline response 0 %, Hill slope -0.711, Maximum measured 113.708 %, Maximum response 100 %, Minimum measured 27.128 %, P-gp concentration 2 uM, R squared 0.834, P-gp inhibitor Elacidar) was > 10 µM and the EC90 (dengue virus type 2 [2]; Dengue virus, VeroE6/TMPRSS2) was > 10 µM. For the same molecule, the EC50 (dengue virus type 2 [2]; veroe6/tmprss2) was 8.6 µM and 2.59 µM, the EC50 (Zika virus [3]; VeroE6/TMPRSS2) was > 10 µM and the EC90 (Zika virus [3]; VeroE6/TMPRSS2, Baseline response 0 %, Hill slope -0.033, Maximum measured 93.578 %, Maximum response 100 %, Minimum measured 41.57 %, R squared 0.011) was > 10 µM. It also gave an EC90 (dengue virus type 2 [4]; EC90 CI (lower) 3.48 uM, EC90 CI (upper) 7.993 uM, Hill slope -1.843, Maximum measured 93.524 %, Maximum response 100 %, Minimum measured 0.518 %, R squared 0.959) of 57.2 µM, an EC90 (dengue virus type 2 [4]; EC90 CI (lower) 4.11 uM, EC90 CI (upper) 8.283 uM, Hill slope -1.641, Maximum measured 89.89 %, Maximum response 100 %, Minimum measured 0.257 %, R squared 0.971) of 84.9 µM and an EC90 (dengue virus type 2 [4]; EC90 CI (lower) 6.077 uM, EC90 CI (upper) 11.974 uM, Hill slope -2.703, Maximum measured 104.698 %, Maximum response 100 %, Minimum measured 1.385 %, R squared 0.989) of 43.4 µM. It also gave an EC90 (dengue virus type 2 [4]; EC90 CI (lower) 9.48 uM, EC90 CI (upper) 152.006 uM, Hill slope -3.766, Maximum measured 162.932 %, Maximum response 100 %, Minimum measured 1.715 %, R squared 0.543) of 122 µM, an EC90 (dengue virus type 2 [4]; EC90 CI (lower) 10.134 uM, EC90 CI (upper) 21.901 uM, Hill slope -2.086, Maximum measured 107.044 %, Maximum response 100 %, Minimum measured 0.795 %, R squared 0.961) of 122 µM and an EC90 (dengue virus type 2 [4]; EC90 CI (lower) 13.312 uM, EC90 CI (upper) 68.915 uM, Hill slope -3.556, Maximum measured 71.93 %, Maximum response 65.616 %, Minimum measured 1.236 %, R squared 0.774) of 104 µM. The EC90 (dengue virus type 2 [4]; EC90 CI (lower) 21.742 uM, EC90 CI (upper) 34.481 uM, Hill slope -3.397, Maximum measured 108.212 %, Maximum response 100 %, Minimum measured 0.235 %, R squared 0.983) was 99.8 µM, the EC50 (dengue virus type 2 [5]; VeroE6/TMPRSS2) was 0.045 µM and the EC90 (dengue virus type 2 [5]; VeroE6/TMPRSS2, Baseline response 43.084 %, EC90 CI (lower) 0 uM, EC90 CI (upper) 0 uM, Hill slope -11.259, Maximum measured 119.711 %, Maximum response 115.226 %, Minimum measured 27.831 %, R squared 0.402) was 0.055 µM. For the same molecule, the EC90 (Zika virus [6]; EC90 CI (lower) 1.33 uM, EC90 CI (upper) 21.491 uM, Hill slope 2.016, Maximum measured 119.759 %, Minimum measured 49.499 %, P-gp concentration 500 nM, R squared 0.708) was 5.34 µM, the EC90 (Zika virus [6]; EC90 CI (lower) 2.362 uM, EC90 CI (upper) 73.078 uM, Hill slope 2.992, Maximum measured 157.756 %, Minimum measured 1.417 %, P-gp concentration 500 nM, R squared 0.838) was 13.1 µM and the EC90 (Zika virus [6]; EC90 CI (lower) 3.073 uM, EC90 CI (upper) 52.816 uM, Hill slope 2.304, Maximum measured 128.398 %, Minimum measured 15.752 %, P-gp concentration 500 nM, R squared 0.861) was 12.7 µM. For the same molecule, the EC90 (Zika virus [6]; EC90 CI (lower) 6.142 uM, EC90 CI (upper) 39.815 uM, Hill slope 2.116, Maximum measured 119.257 %, Minimum measured 3.222 %, P-gp concentration 500 nM, R squared 0.943) was 15.6 µM, the EC90 (Zika virus [6]; EC90 CI (lower) 6.409 uM, EC90 CI (upper) 24.739 uM, Hill slope 3.129, Maximum measured 131.405 %, Minimum measured -2.605 %, P-gp concentration 500 nM, R squared 0.913) was 12.6 µM and the EC90 (Zika virus [6]; EC90 CI (lower) 8.9 uM, EC90 CI (upper) 38.162 uM, Hill slope 2.016, Maximum measured 114.801 %, Minimum measured 5.397 %, P-gp concentration 500 nM, R squared 0.961) was 18.4 µM. The EC90 (Zika virus [6]; EC90 CI (lower) 10.323 uM, EC90 CI (upper) 42.716 uM, Hill slope 1.659, Maximum measured 113.143 %, Minimum measured 4.385 %, P-gp concentration 100 nM, R squared 0.967) was 21 µM, the EC90 (Zika virus [6]; EC90 CI (lower) 14.003 uM, EC90 CI (upper) 30.102 uM, Hill slope 3.316, Maximum measured 112.736 %, Minimum measured -6.737 %, P-gp concentration 500 nM, R squared 0.984) was 20.5 µM and the EC90 (Zika virus [6]; EC90 CI (lower) 17.062 uM, EC90 CI (upper) 43.343 uM, Hill slope 2.491, Maximum measured 123.53 %, Minimum measured -2.699 %, P-gp concentration 500 nM, R squared 0.955) was 27.2 µM. It also gave an EC90 (Zika virus [6]; EC90 CI (lower) 18.425 uM, EC90 CI (upper) 28.103 uM, Hill slope 2.492, Maximum measured 115.262 %, Minimum measured 4.379 %, P-gp concentration 500 nM, R squared 0.954) of 22.8 µM, an EC90 (Zika virus [6]; EC90 CI (lower) 23.748 uM, EC90 CI (upper) 39.727 uM, Hill slope 2.255, Maximum measured 100.144 %, Minimum measured -8.11 %, P-gp concentration 500 nM, R squared 0.982) of 30.7 µM and an EC90 (Zika virus [6]; EC90 CI (lower) 28.979 uM, EC90 CI (upper) 80.3 uM, Hill slope 3.379, Maximum measured 85.565 %, Minimum measured -8.762 %, P-gp concentration 500 nM, R squared 0.96) of 48.2 µM. The EC90 (Zika virus [6]; Hill slope 1.338, Maximum measured 86.023 %, Minimum measured -1.473 %, P-gp concentration 500 nM, R squared 0.993) was > 50 µM, the EC90 (Zika virus [7]; Baseline response 0 %, EC90 CI (lower) 15.507 uM, EC90 CI (upper) 28.219 uM, Hill slope 1.884, Maximum measured 104.267 %, Minimum measured 0.699 %, R squared 0.993) was 20.9 µM and the EC90 (Zika virus [7]; Zika virus, Vero C1008, Baseline response 0 %, Hill slope 0.758, Maximum measured 14.246 %, Minimum measured -0.672 %, R squared 0.091) was > 50 µM. The EC90 (Zika virus [7]; Zika virus, Vero C1008, Baseline response 0 %, Hill slope 2.277, Maximum measured 74.443 %, Minimum measured -3.247 %, R squared 0.993) was > 50 µM and the EC90 (Zika virus [7]; Zika virus, Vero C1008, Baseline response 0 %, EC90 CI (lower) 6.665 uM, EC90 CI (upper) 20.693 uM, Hill slope 1.418, Maximum measured 92.41 %, Minimum measured 5.185 %, R squared 0.921) was 11.7 µM.
